The values that follow come from PMC11589101, “Profiling the endocrine-disrupting properties of triazines, triazoles, and short-chain PFAS” (Toxicological Sciences, 2024).

Molecules are shown by their SMILES.

Experiment [1] concerns the target T1, human transthyretin (TTR) (Homo sapiens, UniProt P02766). Description: FITC-T4 TTR-binding assay, initial (original) method. As to the method:
(§1) All incubations were performed at room temperature.
(§2) Fluorescence enhancement was determined for each well by subtracting its relative fluorescence units (RFU) before TTR addition from its RFUs after TTR addition. The resulting values were normalized to percentages of the vehicle control. A concentration–response curve was fitted through the data using the same model as in the reporter gene assays.
After 15 min of incubation, fluorescence was measured and fluorescence enhancement was calculated by subtracting RFU without TTR from RFU with TTR. Further data analysis was similar to the screening assays.

Experiment [2] concerns the target T1, human transthyretin (TTR). The experiment can be described thus: FITC-T4 TTR-binding assay, screening method. On the procedure: as §1
In the screening tests, 48 μl of Tris-HCl buffer (pH 8.0) was added to each well of black low-binding 96-well plates. Two microliters of each test compound dissolved in their respective solvent was added to each well and the plate was shaken at 600 rpm for 5 min. […] Fluorescence was measured again to check for possible autofluorescence or quenching by the test compound.
as §2

The mark [3] stands for this setting: initial method, 110 nM FITC-T4, 30 nM TTR.
[4] abbreviates: initial method, 110 nM FITC-T4, 30 nM TTR, read-out: IC50 competing with FITC-T4 for binding to TTR.
The mark [5] stands for this setting: screening method, read-out: IC50 TTR-binding assay, Screening Method.

With `Cc1cccc2[nH]nnc12` [4-methylbenzotriazole, 4-Methylbenzotriazole], the “% FITCT4 bound to TTR” value worked out at 96.4305% in experiment [1] (0.1 uM); 93.5915% in experiment [1] (0.3 uM); 89.9761% in experiment [1] (1 uM); 82.6096% in experiment [1] (3 uM); 67.1205% in experiment [1] (10 uM); 47.648% in experiment [1] (30 uM). Moreover, the “% FITCT4 bound to TTR” value in experiment [1] (100 uM) amounted to 21.2593%. For the same compound, the “IC10 competing with FITC-T4 for binding to TTR” value (shortened to “IC10 competing with FITC-T4”) in experiment [1] (setting [3]) worked out at 1300 nM. The IC50 in experiment [1] (setting [4]) came to 23300 nM; in experiment [2] (setting [5]), 26300 nM.

Take `O=C(O)C(F)(OC(F)(F)C(F)(F)C(F)(F)F)C(F)(F)F` (stereo not shown) [GenX, Hexafluoropropylene oxide dimer acid]: the “% FITCT4 bound to TTR” value in experiment [1] (0.1 uM) is 92.2482%; in experiment [1] (0.3 uM), 91.7718%; in experiment [1] (1 uM) it was 89.1133%; in experiment [1] (3 uM), 86.8896%; in experiment [1] (10 uM), 74.6529%; in experiment [1] (30 uM) it was 53.6966%. Further, the “% FITCT4 bound to TTR” value in experiment [1] (100 uM) turned out to be 24.7329%. In addition, the “IC10 competing with FITC-T4” value in experiment [1] (setting [3]) came out at 1900 nM. Moreover, the figures for the IC50 in experiment [1] (setting [4]) and in experiment [2] (setting [5]) were 31900 nM and 30300 nM, respectively.

`O=S(=O)(O)C(F)(F)C(F)(F)C(F)(F)C(F)(F)F` [PFBS, Perfluorobutane sulfonic acid]: the “% FITCT4 bound to TTR” value in experiment [1] (0.1 uM) was found to be 97.3072%; in experiment [1] (0.3 uM), 93.7406%; in experiment [1] (1 uM), 89.6282%; in experiment [1] (3 uM), 73.6529%; in experiment [1] (10 uM), 44.4619%; in experiment [1] (30 uM), 21.5802%. Besides, in experiment [1] (100 uM), the “% FITCT4 bound to TTR” value is listed as 11.5263%. The “IC10 competing with FITC-T4” value in experiment [1] (setting [3]) amounted to 820 nM. Also, the IC50 in experiment [1] (setting [4]) was determined as 8300 nM; in experiment [2] (setting [5]), 8200 nM.

Turning to `O=C(O)C(F)(F)C(F)(F)C(F)(F)C(F)(F)C(F)(F)F` [PFHxA, Perfluorohexanoic acid], the “% FITCT4 bound to TTR” value in experiment [1] (0.1 uM) was 90.7115%; in experiment [1] (0.3 uM) it was 81.4177%; in experiment [1] (1 uM), 77.1918%; in experiment [1] (3 uM) it was 44.5805%; in experiment [1] (10 uM) it was 21.8899%; in experiment [1] (30 uM) it was 12.6684%. Besides, the “% FITCT4 bound to TTR” value in experiment [1] (100 uM) is recorded as 2.971%. Also, the “IC10 competing with FITC-T4” value in experiment [1] (setting [3]) is 200 nM. Besides, the IC50 turned out to be 2600 nM in experiment [1] (setting [4]) and 2500 nM in experiment [2] (setting [5]).

With `O=S(=O)(O)C(F)(F)C(F)(F)C(F)(F)C(F)(F)C(F)(F)C(F)(F)F` [PFHxS, Perfluorohexane sulfonic acid], the IC50 in experiment [1] was determined as 270 nM; in experiment [2], 240 nM. Further, the “% FITCT4 bound to TTR” value stood at 74.2951% in experiment [1] (0.1 uM); 47.4669% in experiment [1] (0.3 uM); 17.2866% in experiment [1] (1 uM); 8.444% in experiment [1] (3 uM); 4.647% in experiment [1] (10 uM); 2.41% in experiment [1] (30 uM). Further, the “% FITCT4 bound to TTR” value in experiment [1] (100 uM) is recorded as 0.6647%. The “IC10 competing with FITC-T4” value in experiment [1] (setting [3]) came out at 34 nM.

Regarding `O=C(O)C(F)(F)C(F)(F)C(F)(F)C(F)(F)C(F)(F)C(F)(F)C(F)(F)F` [PFOA, Perfluorooactanoic acid], the “% FITCT4 bound to TTR” value in experiment [1] (0.1 uM) amounted to 82.1607%; in experiment [1] (0.3 uM), 45.526%; in experiment [1] (1 uM) it was 17.6477%; in experiment [1] (3 uM), 6.188%; in experiment [1] (10 uM), 2.364%; in experiment [1] (30 uM) it was 0.3274%. Further, the “% FITCT4 bound to TTR” value in experiment [1] (100 uM) is on record as 0.2557%. Further, the “IC10 competing with FITC-T4” value in experiment [1] (setting [3]) is 53 nM. Moreover, the IC50 in experiment [1] (setting [4]) and in experiment [2] (setting [5]) was 280 nM each time.

Regarding `O=S(=O)(O)C(F)(F)C(F)(F)C(F)(F)C(F)(F)C(F)(F)C(F)(F)C(F)(F)C(F)(F)F` [PFOS, Perfluorooctane sulfonic acid], the “% FITCT4 bound to TTR” value in experiment [1] (0.1 uM) is reported as 75.2122%; in experiment [1] (0.3 uM) it was 36.6572%; in experiment [1] (1 uM), 10.1163%; in experiment [1] (3 uM) it was 2.093%; in experiment [1] (10 uM), 0.8236%; in experiment [1] (30 uM), 1.548%. Further, the “% FITCT4 bound to TTR” value in experiment [1] (100 uM) is recorded as -1.121%. Also, in experiment [1] (setting [3]), the “IC10 competing with FITC-T4” value came out at 47 nM. In addition, the values for the IC50 in experiment [1] (setting [4]) and in experiment [2] (setting [5]) were 210 nM and 190 nM, respectively.

A word on the IC50: it is the concentration that gives 50% inhibition.
